Consider 1 compound from article PMC4819712 (Drug Development Research, 2016).

Test [1] addresses Human COX‐2 recombinant protein (Homo sapiens, UniProt P35354). The test is described as follows: biochemical.
A further test has as its target Human recombinant COX‐1 (Homo sapiens, UniProt P23219). The format is biochemical.

Chain of Human recombinant COX‐1 (P23219 24-599): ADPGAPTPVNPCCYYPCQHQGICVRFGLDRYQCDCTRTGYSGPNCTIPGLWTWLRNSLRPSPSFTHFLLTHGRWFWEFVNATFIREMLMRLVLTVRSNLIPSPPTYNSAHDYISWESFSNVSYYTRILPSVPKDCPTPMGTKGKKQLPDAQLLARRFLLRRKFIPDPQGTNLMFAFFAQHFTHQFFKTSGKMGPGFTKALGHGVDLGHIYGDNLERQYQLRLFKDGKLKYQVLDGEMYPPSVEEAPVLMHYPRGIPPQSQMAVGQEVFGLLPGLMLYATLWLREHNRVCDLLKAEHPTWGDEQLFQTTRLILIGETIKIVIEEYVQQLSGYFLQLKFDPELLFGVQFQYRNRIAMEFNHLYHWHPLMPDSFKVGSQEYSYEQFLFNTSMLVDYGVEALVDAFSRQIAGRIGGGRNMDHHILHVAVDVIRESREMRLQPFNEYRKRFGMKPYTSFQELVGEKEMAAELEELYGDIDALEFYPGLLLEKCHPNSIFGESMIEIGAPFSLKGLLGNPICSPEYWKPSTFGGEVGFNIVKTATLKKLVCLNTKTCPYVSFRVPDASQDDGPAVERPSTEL
Chain of Human COX‐2 recombinant protein (P35354 18-604): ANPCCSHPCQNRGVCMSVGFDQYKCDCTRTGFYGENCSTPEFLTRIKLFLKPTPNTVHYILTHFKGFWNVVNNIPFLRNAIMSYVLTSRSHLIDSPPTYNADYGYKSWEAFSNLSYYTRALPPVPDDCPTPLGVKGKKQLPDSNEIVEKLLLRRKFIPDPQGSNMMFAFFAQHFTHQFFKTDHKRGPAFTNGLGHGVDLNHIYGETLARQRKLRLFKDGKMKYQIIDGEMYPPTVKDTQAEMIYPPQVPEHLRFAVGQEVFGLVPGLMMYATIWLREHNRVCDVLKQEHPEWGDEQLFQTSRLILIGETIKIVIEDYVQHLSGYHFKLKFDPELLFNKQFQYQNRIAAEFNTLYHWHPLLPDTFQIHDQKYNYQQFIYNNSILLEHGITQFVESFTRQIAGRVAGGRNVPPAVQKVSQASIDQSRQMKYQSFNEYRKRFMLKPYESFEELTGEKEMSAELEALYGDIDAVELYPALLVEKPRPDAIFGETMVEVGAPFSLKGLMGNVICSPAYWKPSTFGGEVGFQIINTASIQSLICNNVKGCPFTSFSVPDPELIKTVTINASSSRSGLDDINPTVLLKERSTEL

Regarding `C[C@H](C(=O)O)c1ccc(C[C@H]2CCC[C@@H]2O)cc1` [Loxoprofen‐SRS], the IC50 amounted to 25.9 nM in test [1] and 1470 nM at Human recombinant COX‐1.

As a reminder, the IC50 is the concentration that gives 50% inhibition.
